Measurements taken from patent publication US20170298051A1, “ACTIVATOR OF ADIPONECTIN RECEPTOR” (THE UNIVERSITY OF TOKYO, priority 2013, published 2017).

Columns and labels:
AdipoR1 [1] = biological target: T1, AdipoR1 (Homo sapiens, UniProt Q96A54); assay: Measurement of AMPK phosphorylation ability (Assay 1), HEK 293T cells, Western blotting; format: cell-based; parameters: HEK 293T cells (ATCC; CRL-3216, medium; host or cells: HEK 293T; conditions: 10 minutes
T1 sequence (Q96A54 1-375): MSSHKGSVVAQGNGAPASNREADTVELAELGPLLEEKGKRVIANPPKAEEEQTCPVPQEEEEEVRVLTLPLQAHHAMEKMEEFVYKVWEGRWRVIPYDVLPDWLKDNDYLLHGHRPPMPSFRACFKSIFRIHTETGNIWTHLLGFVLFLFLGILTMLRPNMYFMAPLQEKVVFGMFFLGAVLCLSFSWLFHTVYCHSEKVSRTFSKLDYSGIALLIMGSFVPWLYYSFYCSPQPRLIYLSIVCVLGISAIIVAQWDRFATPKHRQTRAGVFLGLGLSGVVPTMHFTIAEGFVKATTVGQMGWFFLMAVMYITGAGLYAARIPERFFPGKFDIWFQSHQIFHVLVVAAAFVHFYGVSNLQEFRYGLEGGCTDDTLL
Description: (§1) The AMPK phosphorylation ability of the respective compounds according to the present invention was measured by using differentiated C2C12 cells or HEK 293T cells.
HEK 293T cells (ATCC; CRL-3216, medium; DMEM, Fetal Bovine Serum (FBS)) were cultured in a 12- or 24-well plate until they reached 100% confluency (37° C., 5% CO2).
After starvation, a test compound listed in Tables 10 and 11 (concentration: 25 μM, 50 μM) was added thereto, and after 10 minutes, the medium was discarded and the plate was frozen with liquid nitrogen.
(§2) To the 12- or 24-well cell plate which had been frozen was added 100 or 150 μL of Cell lysis buffer pH 7.4 (50 mM HEPES (pH 7.4), 2 mM sodium orthovanadate, 10 mM sodium pyrophosphate, 10 mM NaF, 2 mM EDTA, 2 mM EGTA, 0.1% (v/v) NP-40, 0.2 mM PMSF), and the cells were scraped off with a cell scraper, suspended and transferred into a micro centrifugal tube. And then, the cells were ultrasonically crushed (1 second×3 times) with a sonicator. Centrifugation was performed at 4° C. at 15,000 rpm for 15 minutes, and the supernatant was recovered into a new tube.
(§3) To 100 μL of the supernatant was added 25 μL of 5× sample buffer (280 mM Tris-HCl (pH 6.9), 40% glycerol, 10% (3-mercaptoethanol, 13% SDS, a small amount of bromophenol blue) and mixed together. The rest of the supernatant was used for protein quantification, and the protein concentrations were uniformed by adding 1× sample buffer depending on the concentration of each sample.
(§4) An electrophoresis chamber was filled with 1× SDS buffer (25 mM Tris-HCl, 250 mM glycine, 0.1% SDS), and the sample was applied to a well of polyacrylamide gel. Electrophoresis was performed until the bromophenol blue in the sample reached to the bottom of the gel.
(§5) A filter paper was soaked in 1× Transfer buffer sufficiently, above which the PVDF membrane and the gel after electrophoresis were stacked in this order, and thereabove a filter paper which had been soaked in 1× Transfer buffer sufficiently was further stacked, from which an air was removed and the resultant was set in semi-dry type transfer apparatus and transferred (7V, 35 minutes).
(§6) An unnecessary portion of the blotted membrane was cutoff, and the rest was immediately soaked in blocking buffer (5% skimmed milk in Rinse buffer), and shaken at room temperature at 40 rpm for 3 hours.
(§7) After blocking, the membrane was transferred into Rinse buffer, and washed at room temperature for 10 minutes while shaking. The membrane was soaked in a primary antibody solution (AMPK alpha Antibody (Cell signaling; #2532) 1/1,000 in Rinse buffer, Phospho-AMPK alpha (Thr172) (40H9) antibody (Cell signaling; #2535) 1/1,000 in Rinse buffer), and shaken at 4° C. at 40 rpm overnight.
(§8) The membrane was soaked in a secondary antibody solution (goat anti-rabbit IgG-HRP Antibody (Santa Cruz; sc-2030) 1/2,000 in Rinse buffer), and shaken at room temperature at 40 rpm for 1 hour.
(§9) After the membrane was washed for 45 minutes in the same way as after the primary antibody reaction, the membrane was soaked in a chemiluminescent reaction solution (ECL Western Blotting Detection Reagents, GE Healthcare) for about 1 minute. An excess of the reaction solution was removed, and then the membranes were arranged on a transparent film and sandwiched with it, with which an X-ray film was exposed in a darkroom (for about several seconds to 60 seconds) to develop the film.
(§10) The X-ray film was scanned to take the image, for which the band was measured by using the image analysis software “Image J” to determine the respective amounts of pAMPK and AMPK.

AdipoR1 [2] = biological target: T1, AdipoR1; assay: Measurement of AMPK phosphorylation ability (Assay 2), HEK 293T cells with unrelated or AdipoR1 siRNA; format: cell-based; parameters: HEK 293T cells (ATCC; CRL-3216, medium; host or cells: HEK 293T
Description: HEK 293T cells (medium; DMEM, 10% FBS) were cultured in a 24-well plate until they reached 60% confluency (37° C., 5% CO2).
(§11) First, 1 μL of Lipofectamine RNAiMAX and 50 μL of OPTI-MEM were mixed, and then 5 μM siRNA (sense siRNA sequence: […]tt (SEQ ID NO: 1)) and 50 μL of OPTI-MEM were mixed and the resultants were left to stand at room temperature for 5 minutes. And then, the 1 μL Lipofectamine RNAiMAX/50 μL OPTI-MEM and the 5 μM siRNA/50 μL OPTI-MEM were mixed, and the resultant was left to stand at room temperature for 10 minutes, which was added to the cells.
After 5 minutes, the medium (DMEM, 10% FBS) was replaced, and after starvation on the next day, a test compound listed in Tables 10 and 11 was added thereto. After 10 minutes, the medium was discarded and the plate was frozen with liquid nitrogen.
(§12) The respective amounts of pAMPK and AMPK were determined in the same way as in the above Assay 1.

AdipoR1 [3] = biological target: T2, AdipoR1 (Mus musculus, UniProt Q91VH1); assay: Measurement of AMPK phosphorylation ability (Assay 1), differentiated C2C12 cells, Western blotting; format: cell-based; conditions: 10 μM, 10 minutes
T2 construct: C2C12 cells (ATCC; CRL-1772, medium; host or cells: differentiated C2C12
T2 sequence (Q91VH1 1-375): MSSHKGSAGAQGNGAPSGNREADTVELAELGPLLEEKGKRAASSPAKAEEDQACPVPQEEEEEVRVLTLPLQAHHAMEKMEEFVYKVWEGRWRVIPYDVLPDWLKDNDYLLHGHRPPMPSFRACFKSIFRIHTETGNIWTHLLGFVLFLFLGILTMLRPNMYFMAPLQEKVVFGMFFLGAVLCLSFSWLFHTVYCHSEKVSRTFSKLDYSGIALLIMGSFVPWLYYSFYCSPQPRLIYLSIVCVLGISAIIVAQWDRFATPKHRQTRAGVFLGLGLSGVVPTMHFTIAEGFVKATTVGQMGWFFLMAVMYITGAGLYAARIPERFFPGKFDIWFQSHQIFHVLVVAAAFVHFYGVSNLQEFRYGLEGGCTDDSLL
Description: as §1
C2C12 cells (ATCC; CRL-1772, medium; DMEM, 10% FBS) were cultured in a 12- or 24-well plate until they reached 100% confluency (37° C., 5% CO2).
The medium was changed to 2.5% Horse Serum (HS) and differentiation was started. The medium (DMEM, 2.5% HS) was replaced every three days.
After starvation, a test compound listed in Table 12 (concentration: 10 μM) was added thereto, and after 10 minutes, the medium was discarded and the plate was frozen with liquid nitrogen.
as §2, §3, §4, §5, §6, §7, §8, §9, §10

AdipoR1 [4] = assay: Measurement of AMPK phosphorylation ability (Assay 2), C2C12 cells with unrelated or AdipoR1 siRNA; format: cell-based, Mouse
Description: C2C12 cells (ATCC; CRL-1772, medium; DMEM, 10% Fetal Bovine Serum (FBS)) were cultured in a 12- or 24-well plate until they reached 100% confluency (37° C., 5% CO2). The medium was changed to DMEM, 2.5% Horse Serum (HS) and differentiation was started. The medium (DMEM, 2.5% HS) was replaced two days after the start of differentiation. The medium (DMEM, 2.5% HS) was further replaced two days after that.
as §11, with “On the next day following the replacement of the medium, first,” for “First,”
After 5 minutes, the medium (DMEM, 2.5 HS) was replaced, and after starvation on the next day, a test compound listed in Table 12 was added thereto. After 10 minutes, the medium was discarded and the plate was frozen with liquid nitrogen.
as §12

SMILES | pAMPK/AMPK (%) (AdipoR1 [1]; 25 μM) | pAMPK/AMPK (%) (AdipoR1 [1]; 50 μM) | pAMPK/AMPK (ratio) siRNA, AdipoR1 siRNA (AdipoR1 [2]) [ratio] | pAMPK/AMPK (ratio) siRNA, unrelated siRNA (AdipoR1 [2]) [ratio] | pAMPK/AMPK (%) (AdipoR1 [3]) | pAMPK/AMPK (ratio) siRNA, AdipoR1 siRNA (AdipoR1 [4]) [ratio] | pAMPK/AMPK (ratio) siRNA, unrelated siRNA (AdipoR1 [4]) [ratio]
COc1ccc(OCC(=O)NC2CCN(Cc3ccc(Cl)c(Cl)c3)CC2)cc1 [Compound 37] | 83.83 | 80.12 | 2.69 | 3.11 |  |  | 
CCOc1ccc(OCC(=O)NC2CCN(Cc3ccc(Cl)c(Cl)c3)CC2)cc1 [Compound 38] | 112.70 | 87.54 | 2.43 | 2.67 |  |  | 
CCOc1ccc(OCC(=O)NC2CCN(Cc3cccc(C(F)(F)F)c3)CC2)cc1 [Compound 40] | 80.20 | 91.33 | 2.25 | 2.25 |  |  | 
Cc1ccccc1CN1CCC(NC(=O)COc2ccc(Oc3ccccn3)cc2)CC1 [Compound 46] | 80.93 | 80.11 | 2.74 | 2.58 |  |  | 
CC(c1ccccc1)N1CCC(NC(=O)COc2ccc(Oc3ccccn3)cc2)CC1 (stereo not shown) [Compound 47] | 80.31 | 80.39 | 2.44 | 2.78 |  |  | 
O=C(COc1ccc(Oc2ccccn2)cc1)NC1CCN(Cc2ccc(F)cc2)CC1 [Compound 48] | 80.04 | 85.28 | 3.16 | 3.42 |  |  | 
CC(C)(C)c1ccc(C(=O)NCCC(=O)N2CCN(Cc3cccc4cccnc34)CC2)cc1 [Compound 53] | 91.44 | 81.80 | 2.04 | 2.26 |  |  | 
CC(C)c1ccc(CN2CCN(C(=O)CCNC(=O)c3ccc([N+](=O)[O-])cc3)CC2)cc1 [Compound 64] | 80.29 | 83.01 | 3.57 | 4.86 |  |  | 
O=C(NCCC(=O)N1CCN(Cc2cccc(OC(F)(F)F)c2)CC1)c1ccc([N+](=O)[O-])cc1 [Compound 69] | 80.04 | 100.79 | 4.03 | 5.28 |  |  | 
O=C(NCCC(=O)N1CCN(Cc2cccc(O)c2)CC1)c1ccc2ccccc2c1 [Compound 70] | 84.71 | 88.96 | 2.46 | 2.43 |  |  | 
COc1cccc(NC(=O)c2ccc(CN3CCN(Cc4ccccc4)CC3)cc2)c1 [No. 103694] |  |  |  |  | 81.05 | 3.34 | 4.67

Second part, led by results:

pAMPK/AMPK (%) (AdipoR1 [1]; 25 μM) | pAMPK/AMPK (%) (AdipoR1 [1]; 50 μM) | pAMPK/AMPK (ratio) siRNA, AdipoR1 siRNA (AdipoR1 [2]) [ratio] | pAMPK/AMPK (ratio) siRNA, unrelated siRNA (AdipoR1 [2]) [ratio] | pAMPK/AMPK (%) (AdipoR1 [3]) | SMILES | pAMPK/AMPK (ratio) siRNA, AdipoR1 siRNA (AdipoR1 [4]) [ratio] | pAMPK/AMPK (ratio) siRNA, unrelated siRNA (AdipoR1 [4]) [ratio]
 |  |  |  | 84.85 | COc1ccc(CN2CC[C@@]2(C)C(=O)NC2CCN(Cc3ccccc3)CC2)c2ccccc12 [No. 168198] | 2.97 | 4.53
 |  |  |  | 99.03 | COc1ccc(CN2CCN(C(=O)CCNC(=O)c3ccc(C(C)(C)C)cc3)CC2)cc1C [No. 183665] | 2.83 | 2.88
 |  |  |  | 88.87 | COc1ccccc1N1CCN(CCC(=O)Nc2cccc(Cl)c2)CC1 [No. 189474] | 1.62 | 2.00
 |  |  |  | 82.40 | COc1ccccc1N1CCN(CCC(=O)Nc2ccccc2Cl)CC1 [No. 189640] | 1.82 | 1.85
 |  |  |  | 89.56 | COc1ccc(C(=O)N2CCN(Cc3ccc(C(F)(F)F)cc3)CC2)cc1OC [No. 191294] | 3.54 | 3.25
 |  |  |  | 99.10 | COCc1ccc(CN2CCC(Oc3ccc(C(=O)NC4CCCC4)cc3Cl)CC2)o1 [No. 195831] | 2.98 | 2.88
